Measured values: patent publication US20170027854A1, “Methods And Compositions For Improving The Appearance Of Skin” (ELC Management LLC, priority 2015, published 2017)
Ends that are not written are not given here.

Test system: SIRT6
Experiment: SIRT6 expression in normal human epidermal keratinocytes by immunohistochemistry
Format: cell-based
Conditions: 1% and 3% of a 50 ppm peptide solution, FIG. 2
Procedure: SIRT6 is a member of the conserved family of sirtuin proteins which are associated with metabolism and longevity. SIRT6 is a histone 3, lysine 9 (H3K9) deacetylase and is primarily involved in DNA repair and telomere stability. The peptide of (SEQ ID No. 5) Gly-Ala-Gly-Val-Ser-Ala-Glu-NH2 was tested for Sirt6 stimulating activity as follows.
Normal Human Epidermal Keratinocytes p3
• 1. Cells were plated into 4 well chamber slides @ 10,000 cells/chamber and incubated at 37° C., 5% CO2 & 95% humidity for 24 hours. • 2. The peptide of SEQ ID No. 5 was prepared as follows: • 2.1. Dissolved 5 mg peptide in 5 ml medium to make a 1000 ppm stock solution. • 2.2. Diluted the stock solution to 50 ppm by combining 400 μl 1000 ppm stock solution with 7.6 ml medium • 2.3. Prepared a 3% of the 50 ppm solution by combining 1.5 ml 50 ppm stock with 48.5 ml medium • 2.4. Prepared a 1% of the 50 ppm solution by combining 0.5 ml 50 ppm stock with […] medium • 3. Placed treatments (500 μl per chamber) on cells for 48 h, refreshing treatments after 24 h • 4. Aspirated media and replaced with the appropriate treatments. Incubated for 1 & 6 hours. • 5. Performed immunohistochemistry on the cells
• 6. Prepared Wash Buffer (0.2% Triton X-100):
6.1. Add 1 mL of Triton X-100 to 499 ml of 1×PBS • 7. Prepared Block Solution (1%/10 mg/ml BSA)
7.1. Added 5 g of BSA into a final volume of 500 ml of 1×PBS • 8. […]

Gly-Ala-Gly-Val-Ser-Ala-Glu-NH2 (GAGVSAE-NH2) [SEQ ID No. 5]
SIRT6 expression: dose dependent increase in SIRT6 expression
